For this experiment, the target named is T1, rat histamine H3 receptors (Rattus norvegicus, UniProt Q9QYN8).
T1 construct: Frozen rat frontal brain or frozen human post-mortem frontal brain is homogenized; from tissue; host or cells: rat frontal brain membranes
In words: Rat Histamine H3 Receptor Binding. Particulars: frozen rat frontal brain membranes; radioligand 1 nM 3H-N-methyl-histamine; 1 hour incubation; read-out: rH3 Ki.

T1 sequence (Q9QYN8 whole entry): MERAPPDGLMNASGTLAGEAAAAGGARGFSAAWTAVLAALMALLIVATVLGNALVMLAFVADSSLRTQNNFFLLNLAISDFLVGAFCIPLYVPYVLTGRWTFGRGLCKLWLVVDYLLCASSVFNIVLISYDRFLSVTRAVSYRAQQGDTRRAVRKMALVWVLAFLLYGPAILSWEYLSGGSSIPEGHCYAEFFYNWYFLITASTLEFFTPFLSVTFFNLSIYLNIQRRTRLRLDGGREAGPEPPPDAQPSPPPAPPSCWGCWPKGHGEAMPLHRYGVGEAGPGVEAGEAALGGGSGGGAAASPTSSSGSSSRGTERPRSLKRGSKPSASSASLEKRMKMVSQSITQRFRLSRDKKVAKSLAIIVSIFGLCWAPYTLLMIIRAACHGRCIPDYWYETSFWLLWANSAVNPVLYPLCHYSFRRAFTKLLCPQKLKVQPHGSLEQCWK
Experimental: The in vitro affinity of the compounds in the present invention at the rat or human histamine H3 receptors can be determined according to the following procedure. Frozen rat frontal brain or frozen human post-mortem frontal brain is homogenized in 20 volumes of cold 50 mM Tris HCl containing 2 mM MgCl2 (pH to 7.4 at 4 degrees C.). The homogenate is then centrifuged at 45,000 G for 10 minutes. The supernatant is decanted and the membrane pellet resuspended by Polytron in cold 50 mM Tris HCl containing 2 mM MgCl2 (pH to 7.4 at 4 degrees C.) and centrifuged again. The final pellet is resuspended in 50 mM Tris HCl containing 2 mM MgCl2 (pH to 7.4 at 25 degrees C.) at a concentration of 12 mg/mL. Dilutions of compounds are made in 10% DMSO/50 mM Tris buffer (pH 7.4) (at 10× final concentration, so that the final DMSO concentration is 1%). Incubations are initiated by the addition of membranes (200 microliters) to 96 well V-bottom polypropylene plates containing 25 microliters of drug dilutions and 25 microliters of radioligand (1 nM final concentration 3H—N-methyl-histamine). After a 1 hour incubation, assay samples are rapidly filtered through Whatman GF/B filters and rinsed with ice-cold 50 nM Tris buffer (pH 7.4) using a Skatron cell harvester. Radioactivity is quantified using a BetaPlate scintillation counter. The percent inhibition of specific binding can then be calculated.

Turning to `C[C@@H]1CC[C@@H](C)N1C[C@H]1C[C@H](c2ccc(CN3CCCC3)cc2)C1` [Example 123, trans-(2R,5R)-2,5-Dimethyl-1-[3-(4-pyrrolidin-1-ylmethyl-phenyl)-cyclobutylmethyl]-pyrrolidine], the Ki is 6.84 nM. For the compound `CCN(CCO)C[C@H]1C[C@H](c2ccc(CN3CCCC3)cc2)C1` [Example 113, trans-2-{Ethyl-[3-(4-pyrrolidin-1-ylmethyl-phenyl)-cyclobutylmethyl]-amino}-ethanol], the Ki is 4.46 nM.

As to `COc1ccc(OCC2CC(c3ccc(CN4CCCC4)cc3)C2)nn1` (centres unmarked) [Example 44, 3-Methoxy-6-[3-(4-pyrrolidin-1-ylmethyl-phenyl)-cyclobutylmethoxy]-pyridazine], the Ki was 44.4 nM.

With `Fc1cnc(N2CCN(C[C@H]3C[C@H](c4ccc(CN5CCCC5)cc4)C3)CC2)nc1` [Example 112, trans-5-Fluoro-2-{4-[3-(4-pyrrolidin-1-ylmethyl-phenyl)-cyclobutylmethyl]-piperazin-1-yl}-pyrimidine], the Ki was found to be 0.77 nM.

As to `c1ccc(C2CCCN2C[C@H]2C[C@@H](c3ccc(CN4CCCC4)cc3)C2)nc1` (relative stereo) [Example 105, cis-2-{1-[3-(4-Pyrrolidin-1-ylmethyl-phenyl)-cyclobutylmethyl]-pyrrolidin-2-yl}-pyridine], the inhibitory constant (Ki) was 5.38 nM. Consider `CCCN(CC1CC1)C[C@H]1C[C@H](c2ccc(CN3CCCC3)cc2)C1` [Example 124], for which the Ki came to 0.49 nM. In the case of `c1cc([C@H]2C[C@@H](CN3CCCCC3)C2)ccc1CN1CCCC1` [Example 104, cis-1-[3-(4-Pyrrolidin-1-ylmethyl-phenyl)-cyclobutylmethyl]-piperidine], the Ki stood at 2.78 nM. Take `Cc1cc(C)nc(OC[C@H]2C[C@H](c3ccc(CN4CCCC4)cc3)C2)n1` [Example 55, trans-4,6-Dimethyl-2-[3-(4-pyrrolidin-1-ylmethyl-phenyl)-cyclobutylmethoxy]-pyrimidine]: the Ki turned out to be 92.6 nM.

For `CC1CCN(C[C@H]2C[C@H](c3ccc(CN4CCCC4)cc3)C2)CC1` [Example 119, trans-4-Methyl-1-[3-(4-pyrrolidin-1-ylmethyl-phenyl)-cyclobutylmethyl]-piperidine], the Ki was 1.34 nM. In the case of `Cc1cnc(OC[C@H]2C[C@@H](c3ccc(CN4CCCC4)cc3)C2)nc1C1CCCNC1` (relative stereo) [Example 59, cis-5-Methyl-4-piperidin-3-yl-2-[3-(4-pyrrolidin-1-ylmethyl-phenyl)-cyclobutylmethoxy]-pyrimidine], the Ki came out at 26.2 nM.

For the compound `OC1(c2ccc(CN3CCCC3)cc2)CC(COCc2ccccc2)C1` (centres unmarked) [Example 1, 3-Benzyloxymethyl-1-(4-pyrrolidin-1-ylmethyl-phenyl)-cyclobutanol], the Ki came out at 8.34 nM.

Take `Cc1cc(C2CCNC2)nc(OC[C@H]2C[C@@H](c3ccc(CN4CCCC4)cc3)C2)n1` (relative stereo) [Example 66, cis-4-Methyl-6-pyrrolidin-3-yl-2-[3-(4-pyrrolidin-1-ylmethyl-phenyl)-cyclobutylmethoxy]-pyrimidine]: the Ki was 4.75 nM. Then `Cc1ccc(S(=O)(=O)OC[C@H]2C[C@H](c3ccc(CN4CCCC4)cc3)C2)cc1` [Example 48, trans-Toluene-4-sulfonic acid 3-(4-pyrrolidin-1-ylmethyl-phenyl)-cyclobutylmethyl ester], with 98 nM; and `N#Cc1cccc(COCC2CC(c3ccc(CN4CCCC4)cc3)C2)c1` (centres unmarked) [Example 5, 3-[3-(4-Pyrrolidin-1-ylmethyl-phenyl)-cyclobutylmethoxymethyl]-benzonitrile], with 89.2 nM; and `C[C@@H]1CN(C[C@H]2C[C@H](c3ccc(CN4CCCC4)cc3)C2)C[C@H](C)O1` [Example 126, trans-(2R,6S)-2,6-Dimethyl-4-[3-(4-pyrrolidin-1-ylmethyl-phenyl)-cyclobutylmethyl]-morpholine], with 1.89 nM.

Regarding `CC1CCCN(C[C@H]2C[C@H](c3ccc(CN4CCCC4)cc3)C2)C1` (relative stereo) [Example 118, trans-3-Methyl-1-[3-(4-pyrrolidin-1-ylmethyl-phenyl)-cyclobutylmethyl]-piperidine], the Ki is 0.65 nM. The value for `CN(C[C@H]1C[C@H](c2ccc(CN3CCCC3)cc2)C1)C1CCCCC1` [Example 115, trans-Cyclohexyl-methyl-[3-(4-pyrrolidin-1-ylmethyl-phenyl)-cyclobutylmethyl]-amine] was 1.44 nM; that for `Cc1cc(C2CCNCC2)nc(OC[C@H]2C[C@@H](c3ccc(CN4CCCC4)cc3)C2)n1` [Example 77, cis-4-Methyl-6-piperidin-4-yl-2-[3-(4-pyrrolidin-1-ylmethyl-phenyl)-cyclobutylmethoxy]-pyrimidine] was 42.5 nM. The value for `c1cc([C@H]2C[C@H](CN3CCCCC3)C2)ccc1CN1CCCC1` [Example 108, trans-1-[3-(4-Pyrrolidin-1-ylmethyl-phenyl)-cyclobutylmethyl]-piperidine] was 0.58 nM. The value for `CN(Cc1cccnc1)C[C@H]1C[C@H](c2ccc(CN3CCCC3)cc2)C1` [Example 122, trans-Methyl-pyridin-3-ylmethyl-[3-(4-pyrrolidin-1-ylmethyl-phenyl)-cyclobutylmethyl]-amine] was 2.71 nM. On to `Fc1cc(F)cc(COCC2CC(c3ccc(CN4CCCC4)cc3)C2)c1` (centres unmarked) [Example 14, 1-(4-{-3-[(3,5-Difluoro-phenyl)methoxymethyl]-cyclobutyl}-benzyl)-pyrrolidine], for which the Ki came out at 79.4 nM. Then `Cc1ccc(S(=O)(=O)OCC2CC(c3ccc(CN4CCCC4)cc3)C2)cc1` (centres unmarked) [Example 4, Toluene-4-sulfonic acid 3-(4-pyrrolidin-1-ylmethyl-phenyl)-cyclobutylmethyl ester], with 5.65 nM; and `CC1CCCCN1C[C@H]1C[C@H](c2ccc(CN3CCCC3)cc2)C1` (relative stereo) [Example 117, trans-2-Methyl-1-[3-(4-pyrrolidin-1-ylmethyl-phenyl)-cyclobutylmethyl]-piperidine], with 0.73 nM. For `Cc1cc(C(=O)Nc2ccccc2)nc(OC[C@H]2C[C@@H](c3ccc(CN4CCCC4)cc3)C2)n1` [Example 83, cis-6-Methyl-2[3-(4-pyrrolidin-1-ylmethyl-phenyl)-cyclobutylmethoxy]-pyrimidine-4-carboxylic acid phenylamide], the Ki came to 68.8 nM. Consider `c1cc(C2CCNC2)nc(OC[C@H]2C[C@@H](c3ccc(CN4CCCC4)cc3)C2)n1` (relative stereo) [Example 65, cis-4-Pyrrolidin-3-yl-2-[3-(4-pyrrolidin-1-ylmethyl-phenyl)-cyclobutylmethoxy]-pyrimidine], for which the Ki was 7.28 nM. `CN(Cc1ccccc1)C[C@H]1C[C@H](c2ccc(CN3CCCC3)cc2)C1` [Example 116, trans-Benzyl-methyl-[3-(4-pyrrolidin-1-ylmethyl-phenyl)-cyclobutylmethyl]-amine]: the Ki came out at 2.82 nM.

On to `Cc1ccc(S(=O)(=O)OC[C@H]2C[C@@H](c3ccc(CN4CCCC4)cc3)C2)cc1` [Example 47, cis-Toluene-4-sulfonic acid 3-(4-pyrrolidin-1-ylmethyl-phenyl)-cyclobutylmethyl ester], for which the Ki is 23.2 nM. Turning to `Cc1cnc(C)c(OCC2CC(c3ccc(CN4CCCC4)cc3)C2)n1` (centres unmarked) [Example 41, 2,5-Dimethyl-3-[3-(4-pyrrolidin-1-ylmethyl-phenyl)-cyclobutylmethoxy]-pyrazine], the Ki was 32 nM. The value for `Cc1cnc(OC[C@H]2C[C@@H](c3ccc(CN4CCCC4)cc3)C2)nc1C1CCNC1` (relative stereo) [Example 88, cis-5-Methyl-4-pyrrolidin-3-yl-2-[3-(4-pyrrolidin-1-ylmethyl-phenyl)-cyclobutylmethoxy]-pyrimidine] was 3.79 nM. Then `COc1cc(OCC2CC(c3ccc(CN4CCCC4)cc3)C2)nc(OC)n1` (centres unmarked) [Example 46, 2,4-Dimethoxy-6-[3-(4-pyrrolidin-1-ylmethyl-phenyl)-cyclobutylmethoxy]-pyrimidine], with 104 nM; and `N#Cc1ccc(COCC2CC(c3ccc(CN4CCCC4)cc3)C2)cc1` (centres unmarked) [Example 7, 4-[3-(4-Pyrrolidin-1-ylmethyl-phenyl)-cyclobutylmethoxymethyl]-benzonitrile], with 99.2 nM; and `CC1CC(C)CN(C[C@H]2C[C@H](c3ccc(CN4CCCC4)cc3)C2)C1` (stereo partly drawn) [Example 114, trans-3,5-Dimethyl-1-[3-(4-pyrrolidin-1-ylmethyl-phenyl)-cyclobutylmethyl]-piperidine], with 0.48 nM.

In the case of `O=C1CN(C[C@H]2C[C@H](c3ccc(CN4CCCC4)cc3)C2)CCN1` [Example 127, trans-4-[3-(4-Pyrrolidin-1-ylmethyl-phenyl)-cyclobutylmethyl]-piperazin-2-one], the Ki amounted to 101 nM. Take `C[C@@H]1CN(C[C@H]2C[C@@H](c3ccc(CN4CCCC4)cc3)C2)C[C@H](C)O1` [Example 106, cis-(2R,6S)-2,6-Dimethyl-4-[3-(4-pyrrolidin-1-ylmethyl-phenyl)-cyclobutylmethyl]-morpholine]: the Ki came out at 8.35 nM. As to `Fc1cnc(OCC2CC(c3ccc(CN4CCCC4)cc3)C2)nc1C1CCNCC1` (centres unmarked) [Example 74, 5-Fluoro-4-piperidin-4-yl-2-[3-(4-pyrrolidin-1-ylmethyl-phenyl)-cyclobutylmethoxy]-pyrimidine], the Ki is 12.5 nM. The value for `c1ccc(C2CCCN2C[C@H]2C[C@H](c3ccc(CN4CCCC4)cc3)C2)nc1` (relative stereo) [Example 109, trans-2-{1-[3-(4-Pyrrolidin-1-ylmethyl-phenyl)-cyclobutylmethyl]-pyrrolidin-2-yl}-pyridine] was 2.55 nM. Turning to `CCc1cnc(OC[C@H]2C[C@H](c3ccc(CN4CCCC4)cc3)C2)nc1` [Example 57, trans-5-Ethyl-2-[3-(4-pyrrolidin-1-ylmethyl-phenyl)-cyclobutylmethoxy]-pyrimidine], the Ki was 101 nM. The value for `CC1CCCN1C[C@H]1C[C@H](c2ccc(CN3CCCC3)cc2)C1` (relative stereo) [Example 120, trans-2-Methyl-1-[3-(4-pyrrolidin-1-ylmethyl-phenyl)-cyclobutylmethyl]-pyrrolidine] was 3.35 nM.

The term Ki denotes a measure of affinity in units of concentration, obtained from inhibition or displacement.

Values taken from US7115600B2, “Histamine-3 receptor modulators” (Pfizer Inc., priority 2004, dated 2006).
